These compounds were tested against T1, human CCR6 (Homo sapiens, UniProt P51684) (assay: FLIPR assay (inhibition of CCL20-induced calcium signal)). Settings: HEK-293 cells expressing human CCR6; mean values where determined several times; read-out: FLIPR IC50.
T1 construct: expressed in transfected cells; host or cells: HEK-293
T1 sequence (P51684 1-374): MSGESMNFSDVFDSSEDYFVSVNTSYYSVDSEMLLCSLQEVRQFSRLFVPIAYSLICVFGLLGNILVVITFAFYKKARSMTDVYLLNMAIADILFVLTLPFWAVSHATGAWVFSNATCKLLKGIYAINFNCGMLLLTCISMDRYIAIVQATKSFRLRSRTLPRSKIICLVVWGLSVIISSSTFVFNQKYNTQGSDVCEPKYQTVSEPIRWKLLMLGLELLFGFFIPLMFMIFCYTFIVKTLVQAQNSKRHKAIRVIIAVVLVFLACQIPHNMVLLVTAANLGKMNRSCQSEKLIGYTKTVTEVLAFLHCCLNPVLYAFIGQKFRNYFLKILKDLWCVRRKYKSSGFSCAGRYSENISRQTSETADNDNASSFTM
Format: cell-based
Summary of the method: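 Dye-loaded HEK-293 cells expressing human CCR6 were preincubated with compound for 30 min at room temperature in the dark, then challenged with 10 nM CCL20 (final). Fluorescence was tracked on FLIPR, and baseline-subtracted peak emission over base after agonist addition gave inhibition dose-response curves for IC50.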
Work on CN1CC(C)(C(O)(c2ccc(OC(F)(F)F)cc2)c2cnc(C#N)c(N3CCCC3)c2)C1 (centres unmarked) [Example 267, 5-[(1,3-Dimethyl-azetidin-3-yl)-hydroxy-(4-trifluoromethoxy-phenyl)-methyl]-3-pyrrolidin-1-yl-pyridine-2-carbonitrile] yielded an IC50 of 103 nM. In the case of CN1CC(C)(C(O)(c2ccc(OC(F)(F)F)cc2)c2ccc(OC3CCOCC3)nc2)C1 (centres unmarked) [Example 268, (1,3-Dimethyl-azetidin-3-yl)-[6-(tetrahydro-pyran-4-yloxy)-pyridin-3-yl]-(4-trifluoromethoxy-phenyl)-methanol], the IC50 is reported as 99.3 nM. With CN1CC(C)(C(O)(c2ccc(OC(F)(F)F)cc2)c2ccc(OCC3COC3)nc2)C1 (centres unmarked) [Example 269, (1,3-Dimethyl-azetidin-3-yl)-[6-(oxetan-3-ylmethoxy)-pyridin-3-yl]-(4-trifluoromethoxy-phenyl)-methanol] the IC50 was 224 nM. In the case of Cc1csc(-c2cncc(C(O)(c3ccc(C(C)C)cc3)C3(C)CN(C)C3)c2)n1 (centres unmarked) [Example 270, (1,3-Dimethyl-azetidin-3-yl)-(4-isopropyl-phenyl)-[5-(4-methyl-thiazol-2-yl)-pyridin-3-yl]-methanol], the IC50 is reported as 27.4 nM. For Cc1cnc(-c2cncc(C(O)(c3ccc(C(C)C)cc3)C3(C)CN(C)C3)c2)s1 (centres unmarked) [Example 271, (1,3-Dimethyl-azetidin-3-yl)-(4-isopropyl-phenyl)-[5-(5-methyl-thiazol-2-yl)-pyridin-3-yl]-methanol], the IC50 was 36.5 nM. With COc1ncc(C(O)(c2ccc(C(C)C)cc2)C2(C)CN(C)C2)cn1 (centres unmarked) [Example 272, (1,3-Dimethyl-azetidin-3-yl)-(4-isopropyl-phenyl)-(2-methoxy-pyrimidin-5-yl)-methanol] the IC50 was 485 nM. With CC(C)c1ccc([C@](O)(c2ccnc(N3CCCC3)c2)C2(C)CN(C)C2)cc1 [Example 273, (S)-(1,3-Dimethyl-azetidin-3-yl)-(4-isopropyl-phenyl)-(2-pyrrolidin-1-yl-pyridin-4-yl)-methanol] the IC50 was 32 nM. CC(C)c1ccc(C(O)(c2ccnc(N3CCC[C@@H]3CO)c2)C2(C)CN(C)C2)cc1 (some centres unmarked) [Example 274] was tested, and the IC50 was 252 nM. CC(C)c1ccc(C(O)(c2ccnc(N3CCCCC3)c2)C2(C)CN(C)C2)cc1 (centres unmarked) [Example 275] showed an IC50 of 67.1 nM. CC(C)c1ccc(C(O)(c2ccnc(N3CCOCC3)c2)C2(C)CN(C)C2)cc1 (centres unmarked) [Example 276] was tested, and the IC50 was 413 nM. Compound CC(C)c1ccc([C@](O)(c2ccnc(OCC3CCOCC3)c2)C2(C)CN(C)C2)cc1 [Example 277, (S)-(1,3-Dimethyl-azetidin-3-yl)-(4-isopropyl-phenyl)-[2-(tetrahydro-pyran-4-ylmethoxy)-pyridin-4-yl]-methanol] has an IC50 of 42.2 nM. Compound COCCOc1cc([C@@](O)(c2ccc(C(C)C)cc2)C2(C)CN(C)C2)ccn1 [Example 278, (S)-(1,3-Dimethyl-azetidin-3-yl)-(4-isopropyl-phenyl)-[2-(2-methoxy-ethoxy)-pyridin-4-yl]-methanol] has an IC50 of 48.9 nM. Work on CCc1cc([C@@](O)(c2ccc(C(C)C)cc2)C2(C)CN(C)C2)ccn1 [Example 279, (S)-(1,3-Dimethyl-azetidin-3-yl)-(2-ethyl-pyridin-4-yl)-(4-isopropyl-phenyl)-methanol] yielded an IC50 of 166 nM. Compound CC(C)c1ccc([C@](O)(c2ccnc(C3CCCC3)c2)C2(C)CN(C)C2)cc1 [Example 280, (S)-(2-Cyclopentyl-pyridin-4-yl)-(1,3-dimethyl-azetidin-3-yl)-(4-isopropyl-phenyl)-methanol] has an IC50 of 37.4 nM. For CN1CC(C)([C@](O)(c2ccc(C(F)(F)F)cc2)c2cncc(N3CCCC3)c2)C1 [Example 281, (R)-(1,3-Dimethyl-azetidin-3-yl)-(5-pyrrolidin-1-yl-pyridin-3-yl)-(4-trifluoromethyl-phenyl)-methanol], the IC50 was 82.2 nM. With CC(C)c1ccc([C@](O)(c2cncc(N3CC[C@@](C)(CO)C3)c2)C2(C)CN(C)C2)cc1 [Example 282] the IC50 was 44.3 nM. In the case of CC(C)c1ccc([C@](O)(c2cncc(N3CC[C@H](F)C3)c2)C2(C)CN(C)C2)cc1 [Example 283], the IC50 is reported as 61.6 nM. With CC(C)c1ccc([C@](O)(c2cncc(-n3cc(C4CCOCC4)nn3)c2)C2(C)CN(C)C2)cc1 [Example 284, (R)-(1,3-Dimethyl-azetidin-3-yl)-(4-isopropyl-phenyl)-{5-[4-(tetrahydro-pyran-4-yl)-[1,2,3]triazol-1-yl}-pyridin-3-yl]-methanol] the IC50 was 222 nM. Work on Cc1cncc(C(O)(c2ccc(C(C)C)cc2)C2(C)CN(C)C2)c1 (centres unmarked) [Example 285] yielded an IC50 of 78 nM. Work on C=C(C)c1cncc(C(O)(c2ccc(C(C)C)cc2)C2(C)CN(C)C2)c1 (centres unmarked) [Example 286] yielded an IC50 of 36.3 nM. CC(C)c1ccc(C(O)(c2cncc(C3CC3)c2)C2(C)CN(C)C2)cc1 (centres unmarked) [Example 287] gave an IC50 of 42.8 nM. Work on CC(C)c1ccc(C(O)(c2cncc(C3=CCCC3)c2)C2(C)CN(C)C2)cc1 (centres unmarked) [Example 288] yielded an IC50 of 33.9 nM. In the case of CC(C)c1ccc(C(O)(c2cncc(C3=CC(O)CC3)c2)C2(C)CN(C)C2)cc1 (centres unmarked) [Example 289, 3-{5-[(1,3-Dimethyl-azetidin-3-yl)-hydroxy-(4-isopropyl-phenyl)-methyl]-pyridin-3-yl}-cyclopent-2-enol], the IC50 is reported as 82.4 nM. CC(C)c1ccc(C(O)(c2cncc(C(C)C)c2)C2(C)CN(C)C2)cc1 (centres unmarked) [Example 290] showed an IC50 of 100 nM. CC(C)c1ccc(C(O)(c2cncc(C3CCCC3)c2)C2(C)CN(C)C2)cc1 (centres unmarked) [Example 291] gave an IC50 of 24.8 nM. Compound CC(C)c1ccc(C(O)(c2cncc(C3CCC(O)C3)c2)C2(C)CN(C)C2)cc1 (centres unmarked) [Example 292] has an IC50 of 748 nM. CC(C)c1ccc([C@](O)(c2cccnc2)C2(C)CN(C)C2)cc1 [Example 293] gave an IC50 of 246 nM. In the case of CC(C)c1ccc([C@](O)(c2cncc(C3=CC(=O)CC3)c2)C2(C)CN(C)C2)cc1 [Example 294, 3-{5-[(R)-(1,3-Dimethyl-azetidin-3-yl)-hydroxy-(4-isopropyl-phenyl)-methyl]-pyridin-3-yl}-cyclopent-2-enone], the IC50 is reported as 49.4 nM. With CC(C)c1ccc([C@](O)(c2cncc(C3=CC(C)(O)CC3)c2)C2(C)CN(C)C2)cc1 (stereo partly drawn) [Example 295, 3-{5-[(R)-(1,3-Dimethyl-azetidin-3-yl)-hydroxy-(4-isopropyl-phenyl)-methyl]-pyridin-3-yl}-1-methyl-cyclopent-2-enol] the IC50 was 61.1 nM. Work on CC(C)c1ccc([C@](O)(c2cncc([C@H]3CCC(C)(O)C3)c2)C2(C)CN(C)C2)cc1 (stereo partly drawn) [Example 296, (3S)-3-(5-((R)-(1,3-dimethylazetidin-3-yl)(hydroxy)(4-isopropylphenyl)methyl)pyridin-3-yl)-1-methylcyclopentan-1-ol] yielded an IC50 of 118 nM. CCC1(O)CCC(c2cncc([C@@](O)(c3ccc(C(C)C)cc3)C3(C)CN(C)C3)c2)C1 (stereo partly drawn) [Example 298, 3-{5-[(R)-(1,3-Dimethyl-azetidin-3-yl)-hydroxy-(4-isopropyl-phenyl)-methyl]-pyridin-3-yl}-1-ethyl-cyclopentanol] gave an IC50 of 65.2 nM. CC(C)c1ccc([C@](O)(c2cncc(C3CCC(O)(C(C)C)C3)c2)C2(C)CN(C)C2)cc1 (stereo partly drawn) [Example 299, 3-{5-[(R)-(1,3-Dimethyl-azetidin-3-yl)-hydroxy-(4-isopropyl-phenyl)-methyl]-pyridin-3-yl}-1-isopropyl-cyclopentanol] gave an IC50 of 80.6 nM. For Cc1coc(-c2cncc([C@@](O)(c3ccc(C(C)C)cc3)C3(C)CN(C)C3)c2)n1 [Example 300, (R)-(1,3-Dimethyl-azetidin-3-yl)-(4-isopropyl-phenyl)-[5-(4-methyl-oxazol-2-yl)-pyridin-3-yl]-methanol], the IC50 was 40.8 nM. For CCc1cncc([C@@](O)(c2ccc(C(C)C)cc2)C2(C)CN(C)C2)c1 [Example 301, (R)-(1,3-Dimethyl-azetidin-3-yl)-(5-ethyl-pyridin-3-yl)-(4-isopropyl-phenyl)-methanol], the IC50 was 60 nM. In the case of Cc1cncc([C@@](O)(c2ccc(C(C)C)cc2)C2(C)CN(C)C2)c1 [Example 302, (R)-(1,3-Dimethyl-azetidin-3-yl)-(4-isopropyl-phenyl)-(5-methyl-pyridin-3-yl)-methanol], the IC50 is reported as 44.5 nM. CC(C)c1ccc([C@](O)(c2cncc(C3=COCC3)c2)C2(C)CN(C)C2)cc1 [Example 303, (R)-[5-(4,5-Dihydro-furan-3-yl)-pyridin-3-yl]-(1,3-dimethyl-azetidin-3-yl)-(4-isopropyl-phenyl)-methanol] showed an IC50 of 30.7 nM. Compound CC(C)c1ccc([C@](O)(c2cncc(C3CCOC3)c2)C2(C)CN(C)C2)cc1 (stereo partly drawn) [Example 304, (R)-(1,3-Dimethyl-azetidin-3-yl)-(4-isopropyl-phenyl)-[5-(tetrahydro-furan-3-yl)-pyridin-3-yl]-methanol] has an IC50 of 385 nM. C=C(CCO)c1cncc([C@@](O)(c2ccc(C(C)C)cc2)C2(C)CN(C)C2)c1 [Example 305, 3-{5-[(R)-(1,3-Dimethyl-azetidin-3-yl)-hydroxy-(4-isopropyl-phenyl)-methyl]-pyridin-3-yl}-but-3-en-1-ol] was tested, and the IC50 was 121 nM. In the case of CC(C)c1ccc([C@](O)(c2cncc(C(=O)NC3CCCC3)c2)C2(C)CN(C)C2)cc1 [Example 306, N-Cyclopentyl-5-[(R)-(1,3-dimethyl-azetidin-3-yl)-hydroxy-(4-isopropyl-phenyl)-methyl]-nicotinamide], the IC50 is reported as 101 nM. CC(C)c1ccc([C@](O)(c2cncc(C(=O)N3CCCC3)c2)C2(C)CN(C)C2)cc1 [Example 307] was tested, and the IC50 was 567 nM. With CC(C)c1ccc([C@](O)(c2cncc(C(=O)NC3CCOCC3)c2)C2(C)CN(C)C2)cc1 [Example 308] the IC50 was 515 nM.

Reference: patent US12617773B2, “Azetidin-3-ylmethanol derivatives as CCR6 receptor modulators” (Idorsia Pharmaceuticals Ltd, priority 2020, dated 2026)
